# Assays:
# [1] = tested on: advanced melanoma; conditions: patients with advanced melanoma; Hodi et al. 2010; cited from earlier work
# [2] = tested on: LPS-stimulated hPBMC and human whole blood; test: Cytokine modulation in LPS-stimulated hPBMC and human whole blood; type: cell-based
# Description: TNF-α is an inflammatory cytokine produced by macrophages and monocytes during acute inflammation. TNF-α is responsible for a diverse range of signaling events within cells. TNF-α may play a pathological role in cancer. Without being limited by theory, one of the biological effects exerted by Compound A is the reduction of synthesis of TNF-α. Compound A enhances the degradation of TNF-α mRNA.
# [3] = tested on: CD4+ T cells co-cultured with monocyte-derived DC; test: Mixed lymphocyte reaction (MLR) assay; type: cell-based, human; conditions: for IL-2 secretion compared to either single agent: 48 hours
# Procedure: In one exemplary study, monocytes were isolated from buffy coat using Easy Sep kit (StemCell Technologies) and cultured in RPMI supplemented with 10% FBS, IL-4, and GM-CSF for 7 days. On day 7, CD4+ T cells were isolated from leukopak using Easy Sep kit (StemCell Technologies) and co-cultured with Monocyte-derived DC (MDC) using a 10:1 ratio. Secreted IL-2 was quantified by ELISA at 48 hours and IFNγ was measured at 5 days. Throughout the experiment, surface marker expression was determined by flow cytometry. The results are shown in FIG. 3A (IL-2, 10 nM Compound A), FIG. 3B (IL-2, 100 nM Compound A), and FIG. 4A (IFNγ, 100 nM). Compound A in combination with nivolumab enhanced IL-2 and IFNγ secretion in the mixed lymphocyte reaction. In another exemplary study, monocytes were isolated from healthy donor buffy coat (Stem Cell Technologies) and cultured with 500 U/ml IL-4 and 250 U/ml GM-CSF (R&D Systems) for 7 days until the monocytes differentiated into dendritic cells (DC) by culturing with media containing a cocktail of IL-4 and GM-CSF for 7 days. On day 7, CD4^+ T cells from a different healthy donor were isolated from a leukopak (Stem Cell Technologies). The DC and T cells were mixed at a ratio of 1:10 and co-cultured for 5 days with Compound A and nivolumab (obtained from Blue Door Pharma) or anti-PD-L1 (anti-human CD274 (B7-H1) clone 29E.2A3, obtained from BioLegend, Cat #329716, lot B197650). Supernatants were harvested for IL-2 ELISA at 48 hours (R&D Systems) and for IFNγ ELISA at 5 days (Thermo Fisher Scientific). Monocytes, DC, T cells, and mixed lymphocytes were stained for flow cytometric analysis of CD14, HLA-DR, CD80, CD86, CD83, CD40, CD3, PD-1, PD-L1 surface expression markers throughout the duration of the experiment.
# [4] = tested on: murine liver cancer cell line (BNL-1MEA); test: Orthotopic HCC (liver cancer) model; type: in vivo, mice; conditions: Compound A in combination with anti-CTLA-4 antibody; 22 days of treatment; FIG. 1
# Procedure: The effects of Compound A in combination with checkpoint inhibitors were investigated in an orthotopic HCC model. The orthotopic HCC model was established by injecting about 2×10^5 murine liver cancer cell line (BNL-1MEA) cells into the sub-capsular area of the left liver lobe of male BALB/c or SCID mice at age of 6-7 weeks. Mice were randomized to different treatment groups on day 6 after tumor implantation. Tumor volumes were measured after 22 days of treatment with Compound A alone, the checkpoint inhibitor alone, and Compound A in combination with the checkpoint inhibitor by using the following formula: volume [mm^3]=[width]^2×length×0.5. Tumor tissues were cut into small pieces, followed by incubation with HBSS containing collagenase type I (0.05 mg/ml), collagenase type IV (0.05 mg/ml), hyaluronidase (0.025 mg/ml), DNase (0.01 mg/ml) and soybean trypsin inhibitor (1 mg/ml) (all from Sigma-Aldrich) for 15 minutes. TILs were recovered by using Ficoll-Paque gradient and subjected to lymphocyte subpopulations analysis by flow cytometry (FACScan Caliber, Becton Dickinson; data processed by using the […] Software, BD Biosciences Pharmingen). CD4+ T cells, CD8+ T cells, NK cells, or NKT cells were determined by double staining with specific antibodies recognizing murine CD3 (clone 145-2C11), CD4 (cone GK1.5), CD8 (clone 53-6.7), or Pan-NK (clone DX5)(BD Biosciences Pharmingen). […]
# [5] = tested on: SEB-stimulated PBMC; test: 5 day SEB-stimulated PBMC assay (IL-2 ELISA); type: cell-based, human; conditions: for IL-2 secretion compared to either single agent: 5 days
# Procedure: In one exemplary study, PBMC cells were pretreated with Compound A for 1 hour, then SEB/CPI were added for 5 days, IL-2 elisa on day 5. The results are shown in FIG. 2A (Compound A in combination with nivolumab), FIG. 2B (Compound A in combination with a surrogate commercial anti-PD-1 antibody from BioLegend), and FIG. 2C (Compound A in combination with a surrogate commercial anti-PD-L1 antibody from BioLegend).
# In another exemplary study, Compound A treated PBMCs from healthy donors were stimulated with 10 pg/ml of SEB (ThermoFisher Scientific) followed by addition of nivolumab (obtained from Blue Door Pharma), anti-PD1 (anti-human CD279 clone EH12.2H7, obtained from BioLegend, Cat #329926, lot B194623), and anti-PD-L1 (anti-human CD274 (B7-H1) clone 29E.2A3, obtained from BioLegend, Cat #329716, lot B197650) blocking antibodies. After 5 days of incubation, supernatants were collected and an ELISA for IL-2 (BD Biosciences) was utilized to examine secreted IL-2.
# [6] = tested on: anti-CD3/CD28 stimulated PBMCs (NK, NKT, CD4+ and CD8+ T cell); test: Lymphocyte proliferation assay; type: cell-based, human; conditions: combination of Compound A with nivolumab, 6 days
# Procedure: To further explore immune activation resulting from the combination of Compound A and nivolumab, proliferation of immune cell subsets including NK, NKT, CD4+ and CD8+ T cell was examined. CellTrace Violet (Thermo Fisher) labeled PBMCs from healthy volunteers were treated with Compound A and nivolumab in combination or as single agent, and stimulated with soluble anti-CD3/CD28 (Stem Cell Technologies) for 6 days. Cells were collected and flow cytometry was performed to assay for surface expression of CD3, CD4, CD8, and CD56 (BD Biosciences). Dead cells were excluded by live/dead fixable stain (ThermoFisher Scientific). Prior to flow cytometry, CountBright beads (Thermo Fisher Scientific) were added to examine changes in absolute cell count.
# [7] = tested on: JHH4, a PD-L1 positive HCC cell line; test: PBMC mediated natural cytotoxicity against JHH4; type: cell-based, human; conditions: p<0.05, FIG. 6
# [8] = tested on: CD4+ and CD8+ T cells and autologous CLL tumor cells; test: Immunological synapse bioassay in CLL cells; type: cell-based, human
# [9] = tested on: acute myeloid leukemia (AML) at relapse; conditions: administered alone; cited from earlier work
# [10] = tested on: DLBCL, FL and T-cell lymphomas; conditions: monotherapy; cited from earlier work
# [11] = Compound A 0.01-1 μM for 24 h, compared to vehicle treated cells, P<0.01
# [12] = synapse with PD-L1+ tumor cells
compound,measurement,setting,value
ipilimumab: fully human monoclonal IgG antibody that binds to CTLA-4,overall survival,[1],overall survival benefit
"Cc1nc2cccc(N)c2c(=O)n1C1CCC(=O)NC1=O (centres unmarked) [Compound A, 3-(5-amino-2-methyl-4-oxo-4H-quinazolin-3-yl)-piperidine-2,6-dione]",IL-1β inhibition,[2],potently inhibits
same,IL-10 stimulation,[2],stimulates
same,TNF-α inhibition,[2],markedly inhibits
same,IL-2 secretion,"[3]; Compound A (10 nM, 100 nM) in combination with nivolumab, ELISA at 48 hours, FIG. 3A, 3B",enhanced
same,IFNγ secretion,"[3]; Compound A (100 nM) in combination with nivolumab, 5 days, FIG. 4A",enhanced
same,IL-2 secretion compared to either single agent,"[3]; Compound A with anti-PD-L1, synergy at 1-10 μg/ml anti-PD-L1, FIG. 3D",synergistic IL-2 secretion
same,IFNγ secretion,"[3]; Compound A with anti-PD-L1 between 0.1-10 μg/ml, 5 days of co-culture, FIG. 4C",increased synergistically
same,IFNγ secretion,"[3]; Compound A with nivolumab between 0.1-10 μg/ml, 5 days of co-culture, FIG. 4B",increased synergistically
same,IL-2 secretion compared to either single agent,"[3]; Compound A with nivolumab, synergy between 0.01-10 μg/ml nivolumab, FIG. 3C",synergistic IL-2 secretion
same,anti-tumor efficacy in term of tumor volume,[4],significant synergistic anti-tumor efficacy
same,IL-2 secretion compared to either single agent,"[5]; 40 nM Compound A with anti-PD-1 blocking antibody, synergy above 1 μg/ml anti-PD-1, FIG. 2E",synergistic IL-2 secretion
same,IL-2 secretion compared to either single agent,"[5]; 40 nM Compound A with anti-PD-L1 blocking antibody, synergy above 10 μg/ml anti-PD-L1, FIG. 2F",synergistic IL-2 secretion
same,IL-2 secretion compared to either single agent,"[5]; 40 nM Compound A with nivolumab, synergy between 0.1-100 μg/ml nivolumab, FIG. 2D",synergistic IL-2 secretion
same,IL-2 secretion,"[5]; Compound A pretreatment 1 hour, then SEB/CPI (nivolumab, anti-PD-1 or anti-PD-L1) for 5 days, FIG. 2A-2C",synergistically enhanced IL-2 secretion
same,proliferation in NK cells (absolute cell numbers),[6]; FIG. 5A,enhanced proliferation
same,proliferation in NKT cells (absolute cell numbers),[6]; FIG. 5B,enhanced proliferation
same,proliferation in CD4+ T-cells (absolute cell numbers),[6]; FIG. 5C,but not CD4+ T-cells
same,proliferation in CD8+ T-cells (absolute cell numbers),[6]; FIG. 5D,enhanced proliferation
same,PBMC-mediated cell killing of HCC cell line JHH4,[7]; 50 nM Compound A combined with 1 μg/ml anti-PD-L1,significantly enhanced
same,PBMC-mediated cell killing of HCC cell line JHH4,[7]; 50 nM Compound A combined with 1-10 μg/ml nivolumab,significantly enhanced
same,formation of F-actin immune synapses (area size),[8]; [11],increased
same,number of T cells recognizing tumor cells (% conjugation formation),[8]; [11],dramatically enhanced
same,T cell synapse activity compared to immunotherapy alone,"[8]; Compound A with anti-CTLA-4 blocking antibody, FIG. 7A",increased T cell synapse activity
same,T cell synapse activity compared to immunotherapy alone,"[8]; Compound A with anti-PD-1 blocking antibody, FIG. 7B",increased T cell synapse activity
same,T cell synapse activity compared to immunotherapy alone,"[8]; Compound A with anti-PD-L1 blocking antibody, FIG. 7C",increased T cell synapse activity
same,synapse strength (total fluorescence intensity of F-actin per T cell:APC conjugate),[8]; P<0.01,increased significantly
same,recruitment of inducible co-stimulator (ICOS) to the synapse,"[8]; dose-dependent, P<0.01",increased recruitment
same,polarized expression of CTLA-4 at the synapse,[8]; [12],increased polarized expression
same,polarized expression of PD-1 at the synapse,[8]; [12],increased polarized expression
"CT-011: anti-PD-1 antibody, a humanized antibody",response in treating AML at relapse,[9],failed to show response
nivolumab: human IgG4 anti-PD-1 monoclonal antibody,antitumor activity,[10],has shown antitumor activity
